What was measured:
[1] = molecular target: T1, Keap1 Kelch domain (321-609) / TAMRA-labeled 16mer NRF2 peptide (ETGE motif) (Homo sapiens, UniProt Q14145); test: NRF2-Keap1 FP Assay (Keap1 Kelch fluorescence polarization); format: binding; details: 20 nM Keap1 (321-609), 8 nM Tamra labeled peptide
T1 construct: the Kelch domain (321-609) of Keap1 is used
How it was run: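 Compound dilutions (3-fold) were incubated 1 hr at room temperature with 20 nM Keap1 Kelch (321-609) and 8 nM TAMRA-labeled ETGE 16mer peptide. Buffer was 50 mM Tris pH 8.0, 100 mM NaCl, 5 mM MgCl2, 1 mM DTT, 2 mM CHAPS, 0.005% BSA. Fluorescence polarization (mP) was normalized to controls and fitted with a four-parameter equation to give pIC50.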

[2] = molecular target: T2, full length Keap1 protein / full length NRF2 protein (Homo sapiens, UniProt Q14145); test: NRF2-Keap1 TR-FRET Assay; format: binding; details: 25 nM Keap1-FlagHis and 50 nM biotin-NRF2 added
T2 construct: full length NRF2 protein and full length Keap1 protein (Keap1 exists a dimer) are used; His
T2 sequence (Q14145 whole entry): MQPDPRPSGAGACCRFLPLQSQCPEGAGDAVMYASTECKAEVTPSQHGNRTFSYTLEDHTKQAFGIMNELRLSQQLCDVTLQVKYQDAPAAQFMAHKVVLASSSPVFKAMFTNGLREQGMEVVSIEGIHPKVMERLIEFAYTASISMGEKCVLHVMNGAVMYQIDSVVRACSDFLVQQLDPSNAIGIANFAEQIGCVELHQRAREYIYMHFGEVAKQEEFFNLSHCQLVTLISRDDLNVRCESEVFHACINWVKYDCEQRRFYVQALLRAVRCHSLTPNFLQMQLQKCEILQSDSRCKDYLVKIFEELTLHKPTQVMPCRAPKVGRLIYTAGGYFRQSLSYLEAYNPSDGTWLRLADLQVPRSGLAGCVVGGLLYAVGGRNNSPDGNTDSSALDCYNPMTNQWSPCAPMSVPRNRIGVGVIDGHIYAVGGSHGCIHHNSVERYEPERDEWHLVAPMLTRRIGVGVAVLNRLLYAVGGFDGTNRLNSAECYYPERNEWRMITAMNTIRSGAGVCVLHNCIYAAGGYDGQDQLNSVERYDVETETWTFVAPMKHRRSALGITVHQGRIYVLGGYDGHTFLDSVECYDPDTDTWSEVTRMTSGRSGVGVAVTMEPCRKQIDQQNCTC
How it was run: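 Displacement of biotinylated full-length NRF2 from full-length Keap1 read by Eu/APC TR-FRET (665/615 nm) after 1 h detection at RT. Compound, 3-fold series, first incubated with Keap1 at 37 °C for 2.25 h, NRF2 then added at 4 °C for 1.25 h; pIC50 by four-parameter equation.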

T1 sequence (Q14145 321-609): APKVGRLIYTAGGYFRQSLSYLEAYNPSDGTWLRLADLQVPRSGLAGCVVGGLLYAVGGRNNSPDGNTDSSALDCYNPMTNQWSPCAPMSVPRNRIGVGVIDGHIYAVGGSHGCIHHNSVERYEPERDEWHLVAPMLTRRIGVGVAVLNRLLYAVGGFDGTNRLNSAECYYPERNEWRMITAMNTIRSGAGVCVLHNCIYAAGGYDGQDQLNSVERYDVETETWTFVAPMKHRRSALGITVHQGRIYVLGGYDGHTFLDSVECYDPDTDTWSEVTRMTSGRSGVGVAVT

Cc1nnc(-c2cccc(-c3cccc(-n4ncc(C(=O)O)c4C4CC4)c3)c2)o1 [Example 210, 5S-Cyclopropyl-1-(3′-(5-methyl-1,3,4-oxadiazol-2-yl)-[1,1′-biphenyl]-3-yl)-1H-pyrazole-4-carboxylic acid] was tested, and the IC50 [1] was > 10000 nM and the IC50 [2] was > 100000 nM.

Cn1cc(C2CC2c2c(C(=O)O)cnn2-c2cccc(-c3cccc(-n4ncc5c4C(C)(C)CC5)c3)c2)nn1 (stereo not shown) [Example 212, 1-(3′-(6,6-Dimethyl-5,6-dihydrocyclopenta[c]pyrazol-1(4H)-yl)-[1,1′-biphenyl]-3-yl)-5-(2-(1-methyl-1H-1,2,3-triazol-4-yl)cyclopropyl)-1H-pyrazole-4-carboxylic Acid] showed an IC50 [1] of 10 to 100 nM and an IC50 [2] of 10 to 100 nM.

Work on CCC[C@@H]1CCCCN1C(=O)c1cccc(-c2cccc(-n3ncc(C(=O)O)c3C3CC3c3cnn(C)c3)c2)c1 (stereo partly drawn) [Example 213, 5-(2-(1-Methyl-1H-pyrazol-4-yl)cyclopropyl)-1-(3′-((R)-2-propylpiperidine-1-carbonyl)-[1,1′-biphenyl]-3-yl)-1H-pyrazole-4-carboxylic Acid] yielded an IC50 [1] of 10 to 100 nM and an IC50 [2] of 10 to 100 nM.

Compound CCC[C@@H]1CCCCN1C(=O)c1cccc(-c2cccc(-n3ncc(C(=O)O)c3C3CC3c3cnn(C)c3)c2)c1F (stereo partly drawn) [Example 214, 1-(2′-Fluoro-3′-((R)-2-propylpiperidine-1-carbonyl)-[1,1′-biphenyl]-3-yl)-5-(2-(1-methyl-1H-pyrazol-4-yl)cyclopropyl)-1H-pyrazole-4-carboxylic Acid] has an IC50 [1] of 10 to 100 nM and an IC50 [2] of 10 to 100 nM.

Cn1cc(C2CC2c2c(C(=O)O)cnn2-c2cccc(-c3cccc(C(=O)CC4CCCCC4)c3)c2)nn1 (stereo not shown) [Example 215, 1-(3′-(2-Cyclohexylacetyl)-[1,1′-biphenyl]-3-yl)-5-(2-(1-methyl-1H-1,2,3-triazol-4-yl)cyclopropyl)-1H-pyrazole-4-carboxylic Acid] was tested, and the IC50 [1] was 10 to 100 nM and the IC50 [2] was 100 to 1000 nM.

COC(CC1CCCCC1)c1cccc(-c2cccc(-n3ncc(C(=O)O)c3C3CC3c3cn(C)nn3)c2)c1 (stereo not shown) [Example 216, 1-(3′-(2-Cyclohexyl-1-methoxyethyl)-[1,1′-biphenyl]-3-yl)-5-(2-(1-methyl-1H-1,2,3-triazol-4-yl)cyclopropyl)-1H-pyrazole-4-carboxylic Acid] was tested, and the IC50 [1] was 10 to 100 nM and the IC50 [2] was 100 to 1000 nM.

Work on Cn1cc(C2CC2c2c(C(=O)O)cnn2-c2cccc(-c3cccc(C(O)CC4CCCCC4)c3)c2)nn1 (stereo not shown) [Example 217, 1-(3′-(2-Cyclohexyl-1-hydroxyethyl)-[1,1′-biphenyl]-3-yl)-5-(2-(1-methyl-1H-1,2,3-triazol-4-yl)cyclopropyl)-1H-pyrazole-4-carboxylic acid] yielded an IC50 [1] of 100 to 1000 nM and an IC50 [2] of 100 to 1000 nM.

Work on CC(CC1CCCCC1)Oc1cccc(-c2cccc(-n3ncc(C(=O)O)c3C3CC3c3cn(C)nn3)c2)c1 (stereo not shown) [Example 218, 1-(3′-((1-Cyclohexylpropan-2-yl)oxy)-[1,1′-biphenyl]-3-yl)-5-(2-(1-methyl-1H-1,2,3-triazol-4-yl)cyclopropyl)-1H-pyrazole-4-carboxylic Acid] yielded an IC50 [1] of 10 to 100 nM and an IC50 [2] of 100 to 1000 nM.

Compound CC(Oc1cccc(-c2cccc(-n3ncc(C(=O)O)c3C3CC3c3cn(C)nn3)c2)c1)C1CCCCC1 (stereo not shown) [Example 219, 1-(3′-(1-Cyclohexylethoxy)-[1,1′-biphenyl]-3-yl)-5-(2-(1-methyl-1H-1,2,3-triazol-4-yl)cyclopropyl)-1H-pyrazole-4-carboxylic acid] has an IC50 [1] of 10 to 100 nM and an IC50 [2] of 100 to 1000 nM.

With Cn1cc(C2CC2c2c(C(=O)O)cnn2-c2cccc(-c3cccc(OCc4ccccc4)c3)c2)nn1 (stereo not shown) [Example 221] the IC50 [1] was 100 to 1000 nM and the IC50 [2] was 100 to 1000 nM.

For Cn1cc(C2CC2c2c(C(=O)O)cnn2-c2cccc(-c3cccc(OCc4ccccc4F)c3)c2)nn1 (stereo not shown) [Example 222, 1-(3′-((2-Fluorobenzyl)oxy)-[1,1′-biphenyl]-3-yl)-5-(2-(1-methyl-1H-1,2,3-triazol-4-yl)cyclopropyl)-1H-pyrazole-4-carboxylic acid], the IC50 [1] was 10 to 100 nM and the IC50 [2] was 100 to 1000 nM.

Compound Cn1cc(C2CC2c2c(C(=O)O)cnn2-c2cccc(-c3cccc(OCc4ccc(F)cc4)c3)c2)nn1 (stereo not shown) [Example 223, 1-(3′-((4-Fluorobenzyl)oxy)-[1,1′-biphenyl]-3-yl)-5-(2-(1-methyl-1H-1,2,3-triazol-4-yl)cyclopropyl)-1H-pyrazole-4-carboxylic acid] has an IC50 [1] of 100 to 1000 nM and an IC50 [2] of 1000 to 10000 nM.

Compound Cn1cc(C2CC2c2c(C(=O)O)cnn2-c2cccc(-c3cccc(OCc4cccc(F)c4)c3)c2)nn1 (stereo not shown) [Example 224, 1-(3′-((3-Fluorobenzyl)oxy)-[1,1′-biphenyl]-3-yl)-5-(2-(1-methyl-1H-1,2,3-triazol-4-yl)cyclopropyl)-1H-pyrazole-4-carboxylic acid] has an IC50 [1] of 100 to 1000 nM and an IC50 [2] of 100 to 1000 nM.

Cn1cc(C2CC2c2c(C(=O)O)cnn2-c2cccc(-c3cccc(OCCC(C)(C)C)c3)c2)nn1 (stereo not shown) [Example 225, 1-(3′-(3,3-Dimethylbutoxy)-[1,1′-biphenyl]-3-yl)-5-(2-(1-methyl-1H-1,2,3-triazol-4-yl)cyclopropyl)-1H-pyrazole-4-carboxylic acid] showed an IC50 [1] of 10 to 100 nM and an IC50 [2] of 100 to 1000 nM.

Work on CC(Oc1cccc(-c2cccc(-n3ncc(C(=O)O)c3C3CC3c3cn(C)nn3)c2)c1)C1CCOCC1 (stereo not shown) [Example 227, 5-(2-(1-Methyl-1H-1,2,3-triazol-4-yl)cyclopropyl)-1-(3′-(1-(tetrahydro-2H-pyran-4-yl)ethoxy)-[1,1′-biphenyl]-3-yl)-1H-pyrazole-4-carboxylic Acid] yielded an IC50 [1] of 10 to 100 nM and an IC50 [2] of 10 to 100 nM.

CC(Oc1cccc(-c2cccc(-n3ncc(C(=O)O)c3C3CC3c3cn(C)nn3)c2)c1)C1CCCC1 (stereo not shown) [Example 228, 1-(3′-(1-Cyclopentylethoxy)-[1,1′-biphenyl]-3-yl)-5-(2-(1-methyl-1H-1,2,3-triazol-4-yl)cyclopropyl)-1H-pyrazole-4-carboxylic acid] showed an IC50 [1] of 10 to 100 nM and an IC50 [2] of 100 to 1000 nM.

Work on Cn1cc(C2CC2c2c(C(=O)O)cnn2-c2cccc(-c3cccc(OC4CCCCC4)c3)c2)nn1 (stereo not shown) [Example 229] yielded an IC50 [1] of 10 to 100 nM and an IC50 [2] of 100 to 1000 nM.

Compound CC(Oc1cccc(-c2cccc(-n3ncc(C(=O)O)c3C3CC3c3cn(C)nn3)c2)c1)C1CC1 (stereo not shown) [Example 231, 1-(3′-(1-Cyclopropylethoxy)-[1,1′-biphenyl]-3-yl)-5-(2-(1-methyl-1H-1,2,3-triazol-4-yl)cyclopropyl)-1H-pyrazole-4-carboxylic acid] has an IC50 [1] of 10 to 100 nM and an IC50 [2] of 100 to 1000 nM.

For Cn1cc(C2CC2c2c(C(=O)O)cnn2-c2cccc(-c3cccc(OC4CCCN(C(=O)OC(C)(C)C)C4)c3)c2)nn1 (stereo not shown) [Example 232, 1-(3′-((1-(tert-Butoxycarbonyl)piperidin-3-yl)oxy)-[1,1′-biphenyl]-3-yl)-5-(2-(1-methyl-1H-1,2,3-triazol-4-yl)cyclopropyl)-1H-pyrazole-4-carboxylic acid], the IC50 [1] was 100 to 1000 nM and the IC50 [2] was 10 to 100 nM.

Cn1cc(C2CC2c2c(C(=O)O)cnn2-c2cccc(-c3cccc(CCC4CCCCC4)c3)c2)nn1 (stereo not shown) [Example 233, 1-(3′-(2-Cyclohexylethyl)-[1,1′-biphenyl]-3-yl)-5-(2-(1-methyl-1H-1,2,3-triazol-4-yl)cyclopropyl)-1H-pyrazole-4-carboxylic Acid] was tested, and the IC50 [1] was 100 to 1000 nM and the IC50 [2] was 100 to 1000 nM.

From patent US10364256B2 (GlaxoSmithKline Intellectual Property Development Limited, priority 2015, dated 2019)
